Data on 1 compound can be found in PMC12259270, “Sensory neuron–expressed FGF13 controls nociceptive signaling in diabetic neuropathy models” (The Journal of Clinical Investigation, 2025).

The target in the series is T1, human Nav1.5 (Homo sapiens, UniProt Q14524).
T1 construct: expressed in transfected cells; host or cells: HEK293 stably expressing human Nav1.5
Nature of the series: Whole-cell patch-clamp, HEK293 cells stably expressing human Nav1.5. Format: cell-based. The note with it: for Activation / Long-term inactivation, 2nd Pulse / Long-term inactivation, 3rd Pulse / Long-term inactivation, 4th Pulse / Peak Density / Steady state inactivation / Tau (τ): HEK293 Nav1.5. As for the experimental part: Whole-cell patch clamp electrophysiology
HEK293-Nav1.7 cells, HEK293 stably expressing human Nav1.6 (HEK-Nav1.6), HEK293 stably expressing human Nav1.5 (HEK-Nav1.5), human hIPSC-derived sensory neurons (RealDRGTM from Anatomic Incorporated 1020F1-1M) and donor-derived DRG neurons were plated at low density on glass coverslips and processed for whole-cell patch clamp electrophysiology in voltage-clamp and/or current clamp mode. Whole-cell patch electrophysiological experiments were conducted following previously published studies (26). Current densities were obtained by dividing INa amplitude by membrane capacitance. Current –voltage relationships were generated by plotting current density as a function of the […]. Conductance (G Na) was calculated by the […]
where INa is the current amplitude at voltage Vm, and Erev is the Na+ reversal potential.
Activation curves were derived by plotting normalized GNa as a function of test potential and fitted using […]
Where GNa,Max is the maximum conductance, Va is the membrane potential of half-maximal activation, Em is the membrane voltage and k is the slope factor. For steady -state inactivation, normalized current amplitude (INa/INa,Max) at the test potential was plotted as a function of prepulse potential (Vm) and fitted using the […]
Where Vh is the potential of half-maximal inactivation, E m is the membrane voltage, and k is the slope factor.
Transient INa inactivation decay was estimated with the standard exponential equation. Inactivation time constant (tau, τ) was fitted with the following equation: […]
where I(t) is the amplitude of the current at time t and Iss is the steady-state current during a single voltage-step.
The goodness of fitting was determined by correlation coefficient (R), and the cutoff of R was set at 0.85. To observe effects on long-term inactivation (LTI), a four-step protocol was employed during which cells were subjected to four 0 mV, 20 ms depolarization pulses separated by −90 mV, 40 ms recovery intervals. To control for various cell sizes, the current densities were calculated by dividing INa peak current amplitude/membrane capacitance (Cm). To represent the fraction of channels entering into LTI, the peak INa observed during depolarization cycles 2-4 was normalized to the peak INa observed during depolarization cycle 1 (INa/INa,Cycle 1) and plotted as a function of the depolarization cycle.
The cumulative (frequency-dependent) use-dependency was determined by applying 20 pulses with a depolarization to −10 mV (50 ms duration) and 50 ms recovery intervals with a train of 20 pulses at 10 Hz from a holding potential at -70 mV. The current pulses were normalized to the first reco rded pulse and the currents at the 2nd to 20th pulses were compared. The same train was used to record use-dependency at various frequencies […]
The rate of recovery from inactivation was recorded at -80 mV with a standard repriming voltage protocol.
The cells were prepulsed to -20 mV for 20 ms to inactivate all currents, then driven back to the recovery potential (Vrec) for increasing recovery durations before the test pulse to 0 mV. The maximum pulse rate was 0.5 Hz. The […]
follows previous publications (16). The time constants were estimated from single exponential decay to time courses measured at recovery potentials ranging from -140 to -60 mV with the protocol as mentioned above.
Electrophysiological Recordings
HEK293 cells: Electrophysiological recordings in HEK293 stably expressing Nav1.7 (HEK-Nav1.7), Nav1.5 (HEK-Nav1.5) or Nav1.6 (HEK-Nav1.6) were performed at room temperature using a MultiClamp 700B or an Axopatch 200B amplifier (Molecular Devices) after incubating coverslips for 60 minutes either with 0.1% DMSO or 50 μM PW164 or ZL192 in the extracellular solution. The composition of recording solutions consisted of the […]
following salts: extracellular (mM): 140 NaCl, 3 KCl, 1 MgCl2, 1 CaCl2, 10 HEPES, 10 glucose, pH 7.3; […]
intracellular (mM): 130 CH3O3 SCs, 1 EGTA, 10 NaCl, 10 HEPES, pH 7.3. […]

Residues, ends and D or L forms follow the SMILES beside them. *: point of attachment. Cbz = O=C(OCc1ccccc1)*; OtBu = CC(C)(C)O*

T1 sequence (Q14524 whole entry): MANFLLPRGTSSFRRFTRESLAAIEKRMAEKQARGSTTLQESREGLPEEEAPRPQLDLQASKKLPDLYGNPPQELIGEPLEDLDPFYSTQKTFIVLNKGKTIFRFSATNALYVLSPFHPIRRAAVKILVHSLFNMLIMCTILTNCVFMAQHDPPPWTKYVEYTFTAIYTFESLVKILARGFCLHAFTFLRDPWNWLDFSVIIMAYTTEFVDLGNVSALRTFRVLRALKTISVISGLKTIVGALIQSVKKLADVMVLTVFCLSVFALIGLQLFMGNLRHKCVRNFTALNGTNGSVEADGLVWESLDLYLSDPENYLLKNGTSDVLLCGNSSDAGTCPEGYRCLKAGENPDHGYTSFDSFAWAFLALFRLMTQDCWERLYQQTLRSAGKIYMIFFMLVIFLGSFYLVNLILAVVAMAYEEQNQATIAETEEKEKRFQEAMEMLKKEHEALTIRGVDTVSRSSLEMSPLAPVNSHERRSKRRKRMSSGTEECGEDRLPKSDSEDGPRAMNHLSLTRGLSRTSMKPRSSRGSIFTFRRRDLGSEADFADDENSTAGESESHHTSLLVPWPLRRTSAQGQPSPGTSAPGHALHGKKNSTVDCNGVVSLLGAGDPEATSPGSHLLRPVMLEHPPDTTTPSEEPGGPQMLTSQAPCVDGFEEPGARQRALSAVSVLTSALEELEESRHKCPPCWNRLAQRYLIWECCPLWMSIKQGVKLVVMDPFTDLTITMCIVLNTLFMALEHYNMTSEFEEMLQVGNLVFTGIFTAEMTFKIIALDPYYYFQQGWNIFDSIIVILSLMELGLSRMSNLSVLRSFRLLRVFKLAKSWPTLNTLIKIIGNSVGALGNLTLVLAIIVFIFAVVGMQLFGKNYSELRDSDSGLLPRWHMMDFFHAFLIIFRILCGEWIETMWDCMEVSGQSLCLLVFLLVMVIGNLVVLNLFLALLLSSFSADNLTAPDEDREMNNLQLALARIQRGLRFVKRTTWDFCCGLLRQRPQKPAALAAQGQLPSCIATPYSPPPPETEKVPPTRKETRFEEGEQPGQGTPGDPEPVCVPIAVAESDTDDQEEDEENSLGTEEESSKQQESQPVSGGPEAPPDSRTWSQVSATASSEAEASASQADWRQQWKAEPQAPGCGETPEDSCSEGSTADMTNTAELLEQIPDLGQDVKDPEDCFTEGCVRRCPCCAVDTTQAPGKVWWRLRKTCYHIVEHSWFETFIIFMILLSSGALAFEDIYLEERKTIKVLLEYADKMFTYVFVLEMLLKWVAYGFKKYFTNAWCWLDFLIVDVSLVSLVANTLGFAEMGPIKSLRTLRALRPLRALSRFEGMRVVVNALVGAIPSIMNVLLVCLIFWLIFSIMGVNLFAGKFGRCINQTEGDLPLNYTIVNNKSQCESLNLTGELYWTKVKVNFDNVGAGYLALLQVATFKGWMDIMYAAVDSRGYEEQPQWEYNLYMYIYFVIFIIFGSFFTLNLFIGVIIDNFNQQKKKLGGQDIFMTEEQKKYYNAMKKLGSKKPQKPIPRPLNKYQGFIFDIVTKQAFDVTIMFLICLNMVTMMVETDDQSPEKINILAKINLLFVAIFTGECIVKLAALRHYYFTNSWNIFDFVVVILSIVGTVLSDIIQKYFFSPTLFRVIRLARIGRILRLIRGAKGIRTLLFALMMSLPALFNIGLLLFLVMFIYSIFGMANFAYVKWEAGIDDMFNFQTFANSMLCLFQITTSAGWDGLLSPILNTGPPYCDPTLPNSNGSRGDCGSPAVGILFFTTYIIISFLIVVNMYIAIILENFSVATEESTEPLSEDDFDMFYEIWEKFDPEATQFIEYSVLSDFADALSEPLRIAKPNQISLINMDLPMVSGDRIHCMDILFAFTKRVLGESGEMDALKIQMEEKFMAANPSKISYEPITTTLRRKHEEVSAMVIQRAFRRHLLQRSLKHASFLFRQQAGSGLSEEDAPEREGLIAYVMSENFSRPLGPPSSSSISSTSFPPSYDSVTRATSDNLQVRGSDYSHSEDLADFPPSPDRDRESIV

Take `COC(=O)[C@@H](NC(=O)[C@H](CCC(=O)OC(C)(C)C)NC(=O)[C@H](CC(C)C)NC(=O)[C@@H]1CCCN1C(=O)OCc1ccccc1)C(C)C` [PW164] (Cbz-PLE(OtBu)V-OMe): under “FGF13-GFP + PW164”, the Activation is −37.38 ± 2.1 mV; the “Long-term inactivation, 2nd Pulse” value is −89.1 ± 1.71 % maximal Na+ current; the “Long-term inactivation, 3rd Pulse” value is listed as −86.58 ± 1.69 % maximal Na+ current; the “Long-term inactivation, 4th Pulse” value is given as −84.72 ± 1.83 % maximal Na+ current. Also, under “FGF13-GFP + PW164”, the Peak Density is on record as −203.0 ± 15.6 pA/pF, the Steady state inactivation is −75.9 ± 2.1 mV and the “Tau (τ)” value amounted to 0.90 ± 0.04 ms. Besides, under “GFP + PW164”, the Activation is reported as −38.11 ± 1.8 mV; the “Long-term inactivation, 2nd Pulse” value was −91.7 ± 1.27 % maximal Na+ current; the “Long-term inactivation, 3rd Pulse” value was −85.98 ± 2.18 % maximal Na+ current; the “Long-term inactivation, 4th Pulse” value is recorded as −84.62 ± 2.28 % maximal Na+ current. Where the note is “GFP + PW164”, the Peak Density was −314.9 ± 17.9 pA/pF, the Steady state inactivation is listed as −82.7 ± 1.5 mV and the “Tau (τ)” value came to 1.12 ± 0.07 ms. Further, the “activity on Nav1.5 currents” value (Nav1.5-expressing HEK293 cells alone or with FGF13-1b or FGF13-1a) was “inactive”.
